Test results: patent US9409882B2, “Pyridine derivatives” (Hoffmann-La Roche Inc., priority 2012, dated 2016)

Columns and labels:
human Cathepsin S = human Cathepsin S (Homo sapiens (Human), UniProt P25774); assay: Cathepsin enzyme inhibition assay (fluorogenic peptide substrate), human Cat S; format: biochemical; details: human Cat S 1 nM, substrate Z-Val-Val-Arg-AMC 20 μM, pH 6.5
Method: (§1) Cathepsin Enzyme Inhibition Assay
(§2) Enzyme activity is measured by observing the increase in fluorescence intensity caused by cleavage of a peptide substrate containing a fluorophore whose emission is quenched in the intact peptide.
(§3) Assay buffer: 100 mM potassium phosphate pH 6.5, EDTA-Na 5 mM, Triton X-100 0.001%, DTT 5 mM.
(§4) Enzymes (all at 1 nM): human and mouse Cathepsin S, Cat K, Cat B, Cat L.
(§5) Substrate (20 μM): Z-Val-Val-Arg-AMC, except for Cat K which uses Z-Leu-Arg-AMC (both from Bachem).
(§6) AMC=7-Amino-4-Methyl-Coumarin.
(§7) Excitation 360 nm, Emission 465 nm.
(§8) Enzyme is added to the substance dilutions in 96-well microtitre plates and the reaction is started with substrate. […] IC50 are calculated by standard methods.
(§9) Inhibition of human Cat S, mouse Cat S, human Cat K, human Cat B, human Cat L and mouse Cat L have been measured separately.

human Cat L = human Cat L (Homo sapiens (Human), UniProt P07711); assay: Cathepsin enzyme inhibition assay (fluorogenic peptide substrate), human Cat L; format: biochemical; details: human Cat L 1 nM, substrate Z-Val-Val-Arg-AMC 20 μM, pH 6.5
Chain of human Cat L (P07711 114-333): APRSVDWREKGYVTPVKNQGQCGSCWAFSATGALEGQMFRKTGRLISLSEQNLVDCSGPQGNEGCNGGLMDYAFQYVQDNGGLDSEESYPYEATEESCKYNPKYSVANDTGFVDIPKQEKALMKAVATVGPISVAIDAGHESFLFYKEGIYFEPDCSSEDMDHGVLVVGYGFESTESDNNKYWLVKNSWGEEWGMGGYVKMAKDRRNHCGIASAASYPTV
Method: as §1, §2, §3, §4, §5, §6, §7, §8, §9

Chain of human Cathepsin S (P25774 115-331): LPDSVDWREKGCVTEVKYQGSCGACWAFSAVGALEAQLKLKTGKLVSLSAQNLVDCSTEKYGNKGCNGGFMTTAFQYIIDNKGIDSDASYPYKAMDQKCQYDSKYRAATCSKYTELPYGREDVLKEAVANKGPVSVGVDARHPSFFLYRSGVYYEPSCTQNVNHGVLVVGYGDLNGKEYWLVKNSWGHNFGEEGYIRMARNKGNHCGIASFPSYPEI

IC50 (human Cathepsin S) [nM]	IC50 (human Cat L) [nM]	SMILES
264	5650	N#CC1(NC(=O)[C@@H]2C[C@@H](Sc3ccc(Cl)cn3)CN2C(=O)C2(c3ncc(Cl)cc3F)CC2)CC1 [Example 17, (2S,4R)-1-[1-(5-Chloro-3-fluoro-pyridin-2-yl)-cyclopropanecarbonyl]-4-(5-chloro-pyridin-2-ylsulfanyl)-pyrrolidine-2-carboxylic acid (1-cyano-cyclopropyl)-amide]
4.24	3430	N#CC1(NC(=O)[C@@H]2C[C@@H](S(=O)(=O)c3ccccn3)CN2C(=O)C2(c3ncc(Cl)cc3F)CC2)CC1 [Example 18, (2S,4R)-1-[1-(5-Chloro-3-fluoro-pyridin-2-yl)-cyclopropanecarbonyl]-4-(pyridine-2-sulfonyl)-pyrrolidine-2-carboxylic acid (1-cyano-cyclopropyl)-amide]
2.8	5640	Cc1cccc(S(=O)(=O)[C@@H]2C[C@@H](C(=O)NC3(C#N)CC3)N(C(=O)C3(c4ncc(Cl)cc4F)CC3)C2)n1 [Example 23, (2S,4R)-1-[1-(5-Chloro-3-fluoro-pyridin-2-yl)-cyclopropanecarbonyl]-4-(6-methylpyridine-2-sulfonyl)-pyrrolidine-2-carboxylic acid (1-cyano-cyclopropyl)-amide]
6.24	2690	N#CC1(NC(=O)[C@@H]2C[C@@H](S(=O)(=O)c3ccc(C(F)(F)F)cn3)CN2C(=O)C2(c3ncc(Cl)cc3F)CC2)CC1 [Example 24, (2S,4R)-1-[1-(5-Chloro-3-fluoro-pyridin-2-yl)-cyclopropanecarbonyl]-4-(5-trifluoromethyl-pyridine-2-sulfonyl)-pyrrolidine-2-carboxylic acid (1-cyano-cyclopropyl)-amide]
1.6	90	C[C@H](Oc1ccc(S(=O)(=O)[C@@H]2C[C@@H](C(=O)NC3(C#N)CC3)N(C(=O)C3(c4ncc(Cl)cc4F)CC3)C2)c(Cl)c1)C(F)(F)F [Example 27, (2S,4R)-1-(1-(5-chloro-3-fluoropyridin-2-yl)cyclopropanecarbonyl)-4-(2-chloro-4-((S)-1,1,1-trifluoropropan-2-yloxy)phenylsulfonyl)-N-(1-cyanocyclopropyl)pyrrolidine-2-carboxamide]
0.618	362	N#CC1(NC(=O)[C@@H]2C[C@@H](S(=O)(=O)c3cc(C(F)(F)F)ccc3Cl)CN2C(=O)C2(c3ccc(Cl)cn3)CC2)CC1 [Example 29, (2S,4R)-1-[1-(5-Chloro-pyridin-2-yl)-cyclopropanecarbonyl]-4-(2-chloro-5-trifluoromethyl-benzenesulfonyl)-pyrrolidine-2-carboxylic acid (1-cyano-cyclopropyl)-amide]
0.686	112	N#CC1(NC(=O)[C@@H]2C[C@@H](S(=O)(=O)c3ccc(-c4ccnc(Cl)c4)cc3Cl)CN2C(=O)C2(c3ncc(Cl)cc3F)CC2)CC1 [Example 32, (2S,4R)-4-[2-Chloro-4-(2-chloro-pyridin-4-yl)-benzenesulfonyl]-1-[1-(5-chloro-3-fluoro-pyridin-2-yl)-cyclopropanecarbonyl]-pyrrolidine-2-carboxylic acid (1-cyano-cyclopropyl)-amide]
0.382	9.8	Cc1ncccc1-c1ccc(S(=O)(=O)[C@@H]2C[C@@H](C(=O)NC3(C#N)CC3)N(C(=O)C3(c4ncc(I)cc4F)CC3)C2)c(Cl)c1 [Example 36, (2S,4R)-4-[2-Chloro-4-(2-methyl-pyridin-3-yl)-benzenesulfonyl]-1-[1-(3-fluoro-5-iodo-pyridin-2-yl)-cyclopropanecarbonyl]-pyrrolidine-2-carboxylic acid (1-cyano-cyclopropyl)-amide]
0.779	72.2	Cc1ncccc1-c1ccc(S(=O)(=O)[C@@H]2C[C@@H](C(=O)NC3(C#N)CC3)N(C(=O)C3(c4ncc(Cl)cc4Cl)CC3)C2)c(Cl)c1 [Example 37, (2S,4R)-4-[2-Chloro-4-(2-methyl-pyridin-3-yl)-benzenesulfonyl]-1-[1-(3,5-dichloro-pyridin-2-yl)-cyclopropanecarbonyl]-pyrrolidine-2-carboxylic acid (1-cyano-cyclopropyl)-amide]

Further lines, the compound ahead of its results:

SMILES	IC50 (human Cathepsin S) [nM]	IC50 (human Cat L) [nM]
N#CC1(NC(=O)[C@@H]2C[C@H](S(=O)(=O)c3ccc(F)cc3Cl)CN2C(=O)C2(c3ncc(Cl)cc3F)CC2)CC1 [Example 15, (2S,4S)-4-(2-Chloro-4-fluoro-benzenesulfonyl)-1-[1-(5-chloro-3-fluoro-pyridin-2-yl)-cyclopropanecarbonyl]-pyrrolidine-2-carboxylic acid (1-cyano-cyclopropyl)-amide]	11.1	1680
N#CC1(NC(=O)[C@@H]2C[C@@H](Sc3ccc(C(F)(F)F)cn3)CN2C(=O)C2(c3ncc(Cl)cc3F)CC2)CC1 [Example 20, (2S,4R)-1-[1-(5-Chloro-3-fluoro-pyridin-2-yl)-cyclopropanecarbonyl]-4-(5-trifluoromethyl-pyridin-2-ylsulfanyl)-pyrrolidine-2-carboxylic acid (1-cyano-cyclopropyl)-amide]	393	5060
N#CC1(NC(=O)[C@@H]2C[C@@H](Sc3ncccc3C(F)(F)F)CN2C(=O)C2(c3ncc(Cl)cc3F)CC2)CC1 [Example 21, (2S,4R)-1-[1-(5-Chloro-3-fluoro-pyridin-2-yl)-cyclopropanecarbonyl]-4-(3-trifluoromethyl-pyridin-2-ylsulfanyl)-pyrrolidine-2-carboxylic acid (1-cyano-cyclopropyl)-amide]	275	10000
N#CC1(NC(=O)[C@@H]2C[C@@H](S(=O)(=O)c3ccc(Cl)cn3)CN2C(=O)C2(c3ncc(Cl)cc3F)CC2)CC1 [Example 22, (2S,4R)-1-[1-(5-Chloro-3-fluoro-pyridin-2-yl)-cyclopropanecarbonyl]-4-(5-chloropyridine-2-sulfonyl)-pyrrolidine-2-carboxylic acid (1-cyano-cyclopropyl)-amide]	3	1970
N#CC1(NC(=O)[C@@H]2C[C@@H](S(=O)(=O)c3ncccc3C(F)(F)F)CN2C(=O)C2(c3ncc(Cl)cc3F)CC2)CC1 [Example 25, (2S,4R)-1-[1-(5-Chloro-3-fluoro-pyridin-2-yl)-cyclopropanecarbonyl]-4-(3-trifluoromethyl-pyridine-2-sulfonyl)-pyrrolidine-2-carboxylic acid (1-cyano-cyclopropyl)-amide]	3.21	13200
Cc1cc(-c2ccc(S(=O)(=O)[C@@H]3C[C@@H](C(=O)NC4(C#N)CC4)N(C(=O)C4(c5ncc(Cl)cc5F)CC4)C3)c(Cl)c2)ccn1 [Example 31, (2S,4R)-1-(1-(5-chloro-3-fluoropyridin-2-yl)cyclopropanecarbonyl)-4-(2-chloro-4-(2-methylpyridin-4-yl)phenylsulfonyl)-N-(1-cyanocyclopropyl)pyrrolidine-2-carboxamide]	0.505	61.6
Cn1cc(-c2ccc(S(=O)(=O)[C@@H]3C[C@@H](C(=O)NC4(C#N)CC4)N(C(=O)C4(c5ncc(Cl)cc5F)CC4)C3)c(Cl)c2)cn1 [Example 33, (2S,4R)-1-[1-(5-Chloro-3-fluoro-pyridin-2-yl)-cyclopropanecarbonyl]-4-[2-chloro-4-(1-methyl-1H-pyrazol-4-yl)-benzenesulfonyl]-pyrrolidine-2-carboxylic acid (1-cyano-cyclopropyl)-amide]	0.375	28.7
Cc1ncccc1-c1ccc(S(=O)(=O)[C@@H]2C[C@@H](C(=O)NC3(C#N)CC3)N(C(=O)C3(c4ncc(Cl)cc4F)CC3)C2)c(Cl)c1 [Example 34, (2S,4R)-1-[1-(5-Chloro-3-fluoro-pyridin-2-yl)-cyclopropanecarbonyl]-4-[2-chloro-4-(2-methyl-pyridin-3-yl)-benzenesulfonyl]-pyrrolidine-2-carboxylic acid (1-cyano-cyclopropyl)-amide]	0.322	64.2
Cc1ncccc1-c1ccc(S(=O)(=O)[C@@H]2C[C@@H](C(=O)NC3(C#N)CC3)N(C(=O)C3(c4ncc(C(F)(F)F)cc4F)CC3)C2)c(Cl)c1 [Example 35, (2S,4R)-4-[2-Chloro-4-(2-methyl-pyridin-3-yl)-benzenesulfonyl]-1-[1-(3-fluoro-5-trifluoromethyl-pyridin-2-yl)-cyclopropanecarbonyl]-pyrrolidine-2-carboxylic acid (1-cyano-cyclopropyl)-amide]	0.768	58.9
Cn1cc(-c2ccc(S(=O)(=O)[C@@H]3C[C@@H](C(=O)NC4(C#N)CC4)N(C(=O)C4(c5ncc(I)cc5F)CC4)C3)c(Cl)c2)cn1 [Example 38, (2S,4R)-4-[2-Chloro-4-(1-methyl-1H-pyrazol-4-yl)-benzenesulfonyl]-1-[1-(3-fluoro-5-iodo-pyridin-2-yl)-cyclopropanecarbonyl]-pyrrolidine-2-carboxylic acid (1-cyano-cyclopropyl)-amide]	0.678	3.2
Cn1cc(-c2ccc(S(=O)(=O)[C@@H]3C[C@@H](C(=O)NC4(C#N)CC4)N(C(=O)C4(c5ncc(C(F)(F)F)cc5F)CC4)C3)c(Cl)c2)cn1 [Example 39, (2S,4R)-4-[2-Chloro-4-(1-methyl-1H-pyrazol-4-yl)-benzenesulfonyl]-1-[1-(3-fluoro-5-trifluoromethyl-pyridin-2-yl)-cyclopropanecarbonyl]-pyrrolidine-2-carboxylic acid (1-cyano-cyclopropyl)-amide]	0.696	43.6
